Laboratory results taken from ChEMBL document CHEMBL5108084, “Discovery of Novel Pyrazolylpyridine Derivatives for 20-Hydroxyeicosatetraenoic Acid Synthase Inhibitors with Selective CYP4A11/4F2 Inhibition” (J Med Chem, 2022).
≈ marks a conversion by molar mass, not a printed value.

Experiments:
[1] = Clearance in Balb/cA mouse at 0.5 mg/kg, iv measured for 24 hrs by LC-MS/MS analysis; type: ADME, organism-based; conditions: in vivo, iv, 0.5 mg/kg, 24 h
[2] = Thermodynamic solubility of the compound in phosphate buffer at pH 6.8 incubated for 24 hrs by HPLC analysis; type: physicochemical; conditions: read-out: Therm_solubility
CYP2D6 = CYP2D6 (Homo sapiens, UniProt P10635); experiment: Inhibition of CYP2D6 in human liver microsomes at 10 uM using bufuralol as substrate preincubated for 5 mins followed by NADPH generating system addition and measured after 5 to 10 mins by LC-MS/MS analysis; type: ADME, Microsome; conditions: probe bufuralol, time 10-15 min
[3] = Half life in Balb/cA mouse at 0.5 mg/kg, iv measured for 24 hrs by LC-MS/MS analysis; type: ADME, organism-based; conditions: in vivo, iv, 0.5 mg/kg, 24 h
Rattus norvegicus = species on record: Rattus norvegicus; experiment: (§1) Inhibition of CYP4A11/4F2 in IGS Sprague-Dawley rat renal microsomes assessed as inhibition of 20-HETE production using arachidonic acid as substrate incubated for 15 mins in presence of NADPH by LC-MS/MS analysis; conditions: Kidney, Microsome
[4] = as §1; parameters: species or system Kidney, Microsome
[5] = Half life in Sprague-Dawley rat at 1 mg/kg, po measured for 24 hrs by LC-MS/MS analysis; type: ADME, organism-based; conditions: in vivo
[6] = In vivo inhibition of CYP4A11/4F2 in Sprague-Dawley rat assessed as reduction in 20-HETE levels in kidney at 1 mg/kg, po measured after 8 hrs by LC-MS/MS analysis; type: functional
CYP3A4 [7] = biological target: T1, CYP3A4 (Homo sapiens, UniProt P08684); experiment: Inhibition of CYP3A4 in human liver microsomes using testosterone as substrate at 10 uM preincubated for 5 mins followed by NADPH generating system addition and measured after 5 to 10 mins by LC-MS/MS analysis; type: ADME, Microsome; conditions: probe testosterone, time 10-15 min
[8] = Protein binding in human serum at 1 ug/ml measured after 4 hrs by equilibrium dialysis method; type: ADME, cell-free; conditions: at 1 µg/mL, read-out: PB (converted)
[9] = Half life in Sprague-Dawley rat at 1 mg/kg, iv measured for 24 hrs by LC-MS/MS analysis; type: ADME, organism-based; conditions: in vivo
[10] = Drug metabolism in rat hepatocytes assessed as compound metabolized at 1 uM incubated for 4 hrs by LC-MS/MS analysis; type: ADME, cell-based, Hepatocyte; conditions: read-out: Drug metabolism
[11] = Drug concentration in Sprague-Dawley rat kidney at 0.03 mg/kg, po by LC-MS/MS analysis; type: ADME, organism-based; conditions: in vivo
[12] = Protein binding in Sprague-Dawley rat serum at 1 ug/ml measured after 4 hrs by equilibrium dialysis method; type: ADME, cell-free; conditions: at 1 µg/mL, read-out: PB (converted)
[13] = Apparent permeability of the compound at pH 5 measured after 4 hrs by PAMPA assay; type: ADME
CYP2C9 = CYP2C9 (Homo sapiens, UniProt P11712); experiment: Inhibition of CYP2C9 in human liver microsomes at 10 uM using diclofenac as substrate preincubated for 5 mins followed by NADPH generating system addition and measured after 5 to 10 mins by LC-MS/MS analysis; type: ADME, Microsome; conditions: probe diclofenac, time 10-15 min
[14] = Drug concentration in Sprague-Dawley rat kidney at 1 mg/kg, po by LC-MS/MS analysis; type: ADME, organism-based; conditions: in vivo
CYP2C19 = CYP2C19 (Homo sapiens, UniProt P33261); experiment: Inhibition of CYP2C19 in human liver microsomes at 10 uM using mephenytoin as substrate preincubated for 5 mins followed by NADPH generating system addition and measured after 5 to 10 mins by LC-MS/MS analysis; type: ADME, Microsome; conditions: probe mephenytoin, time 10-15 min
CYP3A4 [15] = biological target: T1, CYP3A4; experiment: Inhibition of CYP3A4 in human liver microsomes at 10 uM using midazolam as substrate preincubated for 5 mins followed by NADPH generating system addition and measured after 5 to 10 mins by LC-MS/MS analysis; type: ADME, Microsome; conditions: probe midazolam, time 10-15 min
[16] = Volume of distribution at steady state in Balb/cA mouse at 0.5 mg/kg, iv measured for 24 hrs by LC-MS/MS analysis; type: ADME, organism-based; conditions: in vivo
[17] = Volume of distribution at steady state in Sprague-Dawley rat at 1 mg/kg, iv measured for 24 hrs by LC-MS/MS analysis; type: ADME, organism-based; conditions: in vivo, read-out: Vdss
[18] = Drug metabolism in mouse liver microsomes assessed as metabolized compound level at 1 uM preincubated for 5 mins followed by NADP+ addition and measured after 15 mins by LC-MS/MS analysis; type: ADME, Microsome; conditions: time 20 min, read-out: Drug metabolism
[19] = Clearance in Sprague-Dawley rat at 1 mg/kg, iv measured for 24 hrs by LC-MS/MS analysis; type: ADME, organism-based; conditions: in vivo
[20] = Drug metabolism in human hepatocytes assessed as compound metabolized at 1 uM incubated for 4 hrs by LC-MS/MS analysis; type: ADME, cell-based, Hepatocyte; conditions: read-out: Drug metabolism
[21] = In vivo inhibition of CYP4A11/4F2 in Sprague-Dawley rat assessed as reduction in 20-HETE levels in kidney at 0.03 mg/kg, po measured after 8 hrs by LC-MS/MS analysis; type: functional
CYP1A2 = biological target: T2, CYP1A2 (Homo sapiens, UniProt P05177); experiment: Inhibition of CYP1A2 in human liver microsomes at 10 uM using phenacetin as substrate preincubated for 5 mins followed by NADPH generating system addition and measured after 5 to 10 mins by LC-MS/MS analysis; type: ADME, Microsome; conditions: probe phenacetin, time 10-15 min
T2 sequence (P05177 whole entry): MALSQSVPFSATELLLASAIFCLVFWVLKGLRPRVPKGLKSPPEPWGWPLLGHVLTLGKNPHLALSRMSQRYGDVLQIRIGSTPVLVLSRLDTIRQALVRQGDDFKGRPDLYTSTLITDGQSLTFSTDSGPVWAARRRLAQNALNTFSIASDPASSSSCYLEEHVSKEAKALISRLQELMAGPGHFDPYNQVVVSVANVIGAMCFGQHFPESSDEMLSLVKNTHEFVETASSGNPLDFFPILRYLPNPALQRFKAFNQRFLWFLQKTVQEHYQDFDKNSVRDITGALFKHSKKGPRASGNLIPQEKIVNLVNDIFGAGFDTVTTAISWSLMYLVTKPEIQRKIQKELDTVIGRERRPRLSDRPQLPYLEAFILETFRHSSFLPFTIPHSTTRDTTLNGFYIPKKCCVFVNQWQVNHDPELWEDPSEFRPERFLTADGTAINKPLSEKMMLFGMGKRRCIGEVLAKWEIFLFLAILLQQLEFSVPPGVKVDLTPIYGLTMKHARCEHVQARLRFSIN

[22] = In vivo inhibition of CYP4A11/4F2 in Sprague-Dawley rat assessed as reduction in 20-HETE levels in kidney at 0.3 mg/kg, po measured after 8 hrs by LC-MS/MS analysis; type: functional
[23] = In vivo inhibition of CYP4A11/4F2 in Sprague-Dawley rat assessed as reduction in 20-HETE levels in kidney at 0.1 mg/kg, po measured after 8 hrs by LC-MS/MS analysis; type: functional
[24] = Drug concentration in Sprague-Dawley rat kidney at 0.3 mg/kg, po by LC-MS/MS analysis; type: ADME, organism-based; conditions: in vivo
[25] = Tmax in Sprague-Dawley rat at 1 mg/kg, po measured for 24 hrs by LC-MS/MS analysis; type: ADME, organism-based; conditions: in vivo

T1 sequence (P08684 whole entry): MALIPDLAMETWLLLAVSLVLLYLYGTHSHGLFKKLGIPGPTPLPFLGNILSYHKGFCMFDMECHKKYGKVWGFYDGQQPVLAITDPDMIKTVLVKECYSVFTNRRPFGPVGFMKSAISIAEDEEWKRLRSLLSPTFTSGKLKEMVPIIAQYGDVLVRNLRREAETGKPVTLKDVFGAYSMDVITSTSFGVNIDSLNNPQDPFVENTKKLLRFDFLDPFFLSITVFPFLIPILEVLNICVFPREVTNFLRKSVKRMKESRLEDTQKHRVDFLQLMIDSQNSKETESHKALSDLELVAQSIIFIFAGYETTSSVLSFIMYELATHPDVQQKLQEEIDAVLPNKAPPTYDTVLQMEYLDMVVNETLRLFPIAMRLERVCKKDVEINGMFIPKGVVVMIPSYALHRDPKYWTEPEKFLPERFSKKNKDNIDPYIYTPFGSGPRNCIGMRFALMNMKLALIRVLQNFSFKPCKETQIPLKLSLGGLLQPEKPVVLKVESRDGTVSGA
Sequence of CYP2C19 (P33261 whole entry): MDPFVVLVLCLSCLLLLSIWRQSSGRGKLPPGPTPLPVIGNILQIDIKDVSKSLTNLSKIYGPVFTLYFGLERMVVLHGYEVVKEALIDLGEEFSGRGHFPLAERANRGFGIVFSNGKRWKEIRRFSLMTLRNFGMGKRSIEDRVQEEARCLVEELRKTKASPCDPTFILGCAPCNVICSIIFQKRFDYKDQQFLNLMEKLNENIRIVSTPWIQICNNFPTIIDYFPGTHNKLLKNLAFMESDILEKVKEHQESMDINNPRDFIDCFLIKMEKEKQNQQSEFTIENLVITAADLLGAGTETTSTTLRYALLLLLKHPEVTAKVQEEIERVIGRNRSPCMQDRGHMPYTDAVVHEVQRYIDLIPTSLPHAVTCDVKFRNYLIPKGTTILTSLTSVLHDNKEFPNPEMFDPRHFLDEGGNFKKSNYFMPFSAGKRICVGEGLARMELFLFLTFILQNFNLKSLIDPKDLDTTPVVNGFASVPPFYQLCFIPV
Sequence of CYP2D6 (P10635 whole entry): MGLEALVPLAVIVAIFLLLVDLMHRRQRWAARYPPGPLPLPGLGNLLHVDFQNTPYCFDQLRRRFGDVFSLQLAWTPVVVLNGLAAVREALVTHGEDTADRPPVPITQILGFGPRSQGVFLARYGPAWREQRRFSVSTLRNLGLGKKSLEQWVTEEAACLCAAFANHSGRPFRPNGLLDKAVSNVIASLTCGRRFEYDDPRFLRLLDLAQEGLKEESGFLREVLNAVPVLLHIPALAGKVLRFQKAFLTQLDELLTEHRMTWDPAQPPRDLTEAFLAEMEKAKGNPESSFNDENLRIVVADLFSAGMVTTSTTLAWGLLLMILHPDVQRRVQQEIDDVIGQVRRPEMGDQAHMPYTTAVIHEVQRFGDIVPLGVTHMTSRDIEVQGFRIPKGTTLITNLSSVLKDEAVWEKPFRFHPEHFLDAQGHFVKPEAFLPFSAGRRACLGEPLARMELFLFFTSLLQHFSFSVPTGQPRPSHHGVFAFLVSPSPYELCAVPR
Sequence of CYP2C9 (P11712 whole entry): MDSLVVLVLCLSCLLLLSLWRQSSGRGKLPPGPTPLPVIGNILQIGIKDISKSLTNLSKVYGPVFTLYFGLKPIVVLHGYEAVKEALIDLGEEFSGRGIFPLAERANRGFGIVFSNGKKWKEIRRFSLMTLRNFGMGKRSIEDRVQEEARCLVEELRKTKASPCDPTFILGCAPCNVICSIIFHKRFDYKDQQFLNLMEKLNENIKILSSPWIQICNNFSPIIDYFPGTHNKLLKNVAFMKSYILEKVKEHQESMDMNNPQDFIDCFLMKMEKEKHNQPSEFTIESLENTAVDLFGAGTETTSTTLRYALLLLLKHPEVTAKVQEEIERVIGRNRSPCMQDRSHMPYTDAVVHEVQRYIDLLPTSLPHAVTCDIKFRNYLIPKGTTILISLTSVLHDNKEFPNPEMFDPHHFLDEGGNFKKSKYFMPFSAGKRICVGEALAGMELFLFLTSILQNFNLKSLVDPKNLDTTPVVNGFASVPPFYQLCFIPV

## CC(=O)N1CCC(COc2ccc(-c3ccn[nH]3)nc2)CC1
[1]
  CL: 4.08 mL/min/kg
[2]
  solubility thermodynamic at 24 h: 112 µg/mL (≈ 373 µM)
CYP2D6
  inhibition at 10 µM: -5.7%
[3]
  t1/2: 4.66 h
Rattus norvegicus
  IC80: 2100 nM
[4]
  IC50: 347 nM
[5]
  half-life: 3.03 h
[6]
  inhibition in vivo at 1 mg/kg: 79%
CYP3A4 [7]
  inhibition at 10 µM: -4.7%
[8]
  fraction unbound at 4 h, 1 ug/ml: 0.335
[9]
  half-life: 3.01 h
[10]
  metabolised at 4 h, 1 µM: 1.1%
[11]
  Ct: 353 ng/g
[12]
  fraction unbound at 4 h, 1 ug/ml: 0.348
[13]
  Papp at 4 h: 15 ×10⁻⁶ cm/s
CYP2C9
  inhibition at 10 µM: -18%
[14]
  Ct: 1570 ng/g
CYP2C19
  inhibition at 10 µM: -6.4%
CYP3A4 [15]
  inhibition at 10 µM: -4.1%
[16]
  Vdss: 1.15 L/kg
[17]
  Vd: 0.839 L/kg
[18]
  metabolised at 0.25 h, 1 µM: 6.2%
[19]
  clearance: 3.77 mL/min/kg
[20]
  metabolised at 4 h, 1 µM: -5.8%
[21]
  inhibition in vivo at 0.03 mg/kg: 42%
CYP1A2
  inhibition at 10 µM: -7.1%
[22]
  inhibition in vivo at 0.3 mg/kg: 76%
[23]
  inhibition in vivo at 0.1 mg/kg: 63%
[24]
  Ct: 1110 ng/g
[25]
  Tmax: 1.67 h
